Consider three compounds from patent US20090142735A1, “Bacterial intraoral disease treatment composition, washing treatment solution, hemostatic treatment solution, and bacterial intraoral disease treatment method” (priority 2005, published 2009).

The series can be described thus: Test Example 1: penetrability of the base (migration of food red from the drug application seat). It counts as physicochemical. As to conditions: 100% humidity, root embedded in gypsum block. The text has this:
FIG. 7 depicts a cross-sectional view of a sample 50 according to the present test example. First, the mandibular first premolar affected with apical periodontitis was drilled with a #70 […] to enlarge the root canal and further the root canal 51 was filled using a gutta-percha point and a sealer, and by pressing them sideways. […] At the bottom of this drug application seat 52, two small pieces 53 (about 1.0 mm in diameter) of each base shown in Table 1 added with food red were loaded. Furthermore, cotton ball (not shown) was placed so as to cover these small pieces 53, and “Caviton (registered trade mark)” (G C Co., Ltd.) was layered over this cotton ball to form the covering layer 54, thereby preparing the sample 50. After the root portion of each sample 50 was embedded in an ordinary gypsum block 55, it was stored under 100% humidity. Migration distances of food red from the drug application seat for storing times of 24 hours and 48 hours were measured to assess the penetrability of the base contained in each sample. In this case, the migration distance was determined as the longest distance in the direction of depth (in the direction of the arrow D in FIG. 7) of the area reached by coloring due to food red when the sample 50 was observed from outside.

In the case of `OCC(O)CO` [Sample 6, Glycerin], the “Migration distance of food red from drug application seat (depth direction)” value (“Migration distance of food red” for short) (storing time 24 hours) is recorded as 5.0 mm and the “Migration distance of food red” value (storing time 48 hours) was determined as 7.0 mm.

For `O` [Sample 1, Water], the “Migration distance of food red” value (storing time 24 hours) was 2.0 mm and the “Migration distance of food red” value (storing time 48 hours) was found to be 4.0 mm.

For the compound `CC(O)CO` (stereo not drawn) [Sample 2, Propylene glycol], the “Migration distance of food red” value is given as 2.0 mm (storing time 24 hours) and 3.5 mm (storing time 48 hours).
